Where two headings read alike, the source gives them in different places. Values belong to the compound of their own block, whether it stands above or below them.
How the values were obtained:
Format in all cases: cell-based
[1] = molecular target: T1, recombinant rat GluN1/GluN2C (Rattus norvegicus, UniProt Q00961); experiment: Two-electrode voltage-clamp (TEVC) recordings in Xenopus laevis oocytes, GluN1/GluN2C; conditions: for I30 μM/Icontrol (mean ± SEM, %) GluN2C: 30 μM compound, Tables 5-7
T1 construct: expressed in transfected cells; host or cells: Xenopus laevis oocytes (Ecocyte) injected with in vitro transcribed cRNA
T1 sequence (Q00961 20-1237, other chains not shown): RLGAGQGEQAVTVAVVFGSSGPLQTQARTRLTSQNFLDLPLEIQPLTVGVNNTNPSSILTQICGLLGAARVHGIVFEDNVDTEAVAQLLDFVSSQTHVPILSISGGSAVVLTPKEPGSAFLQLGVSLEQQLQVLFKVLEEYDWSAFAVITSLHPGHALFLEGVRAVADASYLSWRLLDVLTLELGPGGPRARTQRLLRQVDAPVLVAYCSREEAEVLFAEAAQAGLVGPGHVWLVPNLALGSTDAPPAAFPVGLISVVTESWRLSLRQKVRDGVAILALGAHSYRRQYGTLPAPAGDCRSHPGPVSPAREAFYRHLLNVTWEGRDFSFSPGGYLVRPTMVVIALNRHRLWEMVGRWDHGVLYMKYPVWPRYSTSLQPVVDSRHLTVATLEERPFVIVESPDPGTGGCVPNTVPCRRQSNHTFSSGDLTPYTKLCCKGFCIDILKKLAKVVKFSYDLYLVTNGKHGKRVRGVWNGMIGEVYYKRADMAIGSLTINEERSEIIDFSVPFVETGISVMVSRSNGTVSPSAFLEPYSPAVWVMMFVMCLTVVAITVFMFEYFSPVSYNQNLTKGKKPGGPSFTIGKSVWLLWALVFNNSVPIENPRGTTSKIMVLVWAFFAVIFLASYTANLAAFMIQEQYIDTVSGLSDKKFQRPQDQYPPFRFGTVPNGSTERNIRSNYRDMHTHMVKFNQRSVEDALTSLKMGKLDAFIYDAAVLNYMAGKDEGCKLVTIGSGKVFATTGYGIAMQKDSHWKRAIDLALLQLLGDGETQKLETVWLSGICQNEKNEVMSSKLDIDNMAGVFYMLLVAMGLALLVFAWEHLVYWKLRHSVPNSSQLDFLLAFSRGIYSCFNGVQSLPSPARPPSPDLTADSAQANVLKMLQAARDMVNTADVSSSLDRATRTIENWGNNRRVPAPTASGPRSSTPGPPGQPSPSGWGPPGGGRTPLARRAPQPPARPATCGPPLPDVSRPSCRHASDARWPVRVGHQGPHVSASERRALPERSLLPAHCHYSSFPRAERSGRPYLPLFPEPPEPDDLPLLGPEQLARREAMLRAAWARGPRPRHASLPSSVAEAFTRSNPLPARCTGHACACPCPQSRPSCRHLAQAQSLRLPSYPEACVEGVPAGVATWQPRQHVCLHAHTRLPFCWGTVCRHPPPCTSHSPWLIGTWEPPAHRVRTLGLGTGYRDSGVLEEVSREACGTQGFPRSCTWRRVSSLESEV
Method: (§1) Data are from between 3-26 oocytes from 2-5 frogs for each compound and receptor tested.
(§2) Two-electrode voltage-clamp recordings were performed in Xenopus laevis oocytes (Ecocyte) expressing recombinant rat GluN1/GluN2A, GluN1/GluN2B, GluN1/GluN2C, GluN1/GluN2D. cRNA was transcribed in vitro (Ambion), diluted with nuclease free water, and injected at a ratio of 1:2 GluN1:GluN2 (5-10 ng total cRNA). The oocytes were kept in Barth's solution comprised of (in mM) 88 NaCl, 5 Tris-HCl, 2.4 NaHCO3, 1 KCl, 0.84 MgSO4, 0.41 CaCl2, and 0.33 Ca(NO3)2 at pH 7.4 at 15-17° C. for two to five days before experiments. Oocytes were placed into a perfusion chamber and continually washed with recording solution containing (in mM) 90 NaCl, 1.0 KCl, 0.5 BaCl2, 0.005 EDTA, and 10 HEPES at pH 7.4 (23° C.). Voltage clamp recordings were conducted at a holding potential of −40 mV. All compounds were made as 20 mM stock solutions in DMSO and dissolved to reach the final concentration in recording solution. Final DMSO content was 0.05-0.5% (vol/vol). Some oocytes expressing GluN1/GluN2A were pretreated with […] BAPTA-AM for 10 minutes or injected with […] of 2 mM K-BAPTA to prevent gradual run-up of the current response.

[2] = molecular target: T2, recombinant rat GluN1/GluN2D (Rattus norvegicus, UniProt Q62645); experiment: Two-electrode voltage-clamp (TEVC) recordings in Xenopus laevis oocytes, GluN1/GluN2D; conditions: for EC50: untitled tables after drawing 25 and drawing 36, read-out: EC50 (μM) GluN2D; for I30 μM/Icontrol (mean ± SEM, %) GluN2D: 30 μM compound, Tables 5-7
T2 construct: expressed in transfected cells; host or cells: Xenopus laevis oocytes (Ecocyte) injected with in vitro transcribed cRNA
T2 sequence (Q62645 28-1323, other chains not shown): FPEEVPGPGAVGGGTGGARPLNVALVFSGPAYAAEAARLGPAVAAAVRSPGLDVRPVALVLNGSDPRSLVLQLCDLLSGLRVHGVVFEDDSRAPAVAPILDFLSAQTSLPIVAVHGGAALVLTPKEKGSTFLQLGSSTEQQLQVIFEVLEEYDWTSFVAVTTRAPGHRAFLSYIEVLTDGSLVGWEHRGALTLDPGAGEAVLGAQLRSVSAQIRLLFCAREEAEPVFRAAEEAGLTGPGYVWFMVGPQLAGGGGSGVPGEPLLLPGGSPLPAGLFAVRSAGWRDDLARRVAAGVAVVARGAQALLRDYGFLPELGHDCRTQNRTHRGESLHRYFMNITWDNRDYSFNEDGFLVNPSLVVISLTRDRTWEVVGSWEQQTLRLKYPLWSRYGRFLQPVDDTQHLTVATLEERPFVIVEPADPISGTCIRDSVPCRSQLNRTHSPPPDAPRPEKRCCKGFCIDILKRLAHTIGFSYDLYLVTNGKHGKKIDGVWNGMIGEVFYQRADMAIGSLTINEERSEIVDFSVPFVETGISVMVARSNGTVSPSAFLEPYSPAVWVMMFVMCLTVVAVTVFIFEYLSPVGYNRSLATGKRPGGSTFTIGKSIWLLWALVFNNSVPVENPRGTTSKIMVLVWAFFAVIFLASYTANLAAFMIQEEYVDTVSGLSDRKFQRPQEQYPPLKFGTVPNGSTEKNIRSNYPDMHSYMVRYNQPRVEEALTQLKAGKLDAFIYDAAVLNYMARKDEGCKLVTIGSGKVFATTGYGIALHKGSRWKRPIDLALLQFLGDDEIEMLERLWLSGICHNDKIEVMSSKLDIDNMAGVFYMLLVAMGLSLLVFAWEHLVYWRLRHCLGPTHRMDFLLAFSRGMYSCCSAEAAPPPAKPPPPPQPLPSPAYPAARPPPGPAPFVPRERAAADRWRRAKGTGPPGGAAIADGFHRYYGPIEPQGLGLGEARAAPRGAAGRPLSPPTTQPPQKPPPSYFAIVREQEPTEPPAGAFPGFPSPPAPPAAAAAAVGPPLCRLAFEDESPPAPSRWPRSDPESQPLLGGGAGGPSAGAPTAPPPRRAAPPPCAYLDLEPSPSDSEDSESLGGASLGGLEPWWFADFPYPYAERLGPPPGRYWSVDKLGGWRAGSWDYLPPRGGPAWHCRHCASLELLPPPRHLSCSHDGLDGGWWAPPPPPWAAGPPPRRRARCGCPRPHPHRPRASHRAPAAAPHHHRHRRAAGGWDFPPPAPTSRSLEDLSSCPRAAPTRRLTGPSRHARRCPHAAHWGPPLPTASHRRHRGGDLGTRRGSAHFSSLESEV
Method: as §1, §2

[3] = molecular target: T3, recombinant rat GluN1/GluN2B (Rattus norvegicus, UniProt Q00960); experiment: Two-electrode voltage-clamp (TEVC) recordings in Xenopus laevis oocytes, GluN1/GluN2B; conditions: for I30 μM/Icontrol (mean ± SEM, %) GluN2B: 30 μM compound, Tables 5-7
T3 construct: expressed in transfected cells; host or cells: Xenopus laevis oocytes (Ecocyte) injected with in vitro transcribed cRNA
T3 sequence (Q00960 27-1482, other chains not shown): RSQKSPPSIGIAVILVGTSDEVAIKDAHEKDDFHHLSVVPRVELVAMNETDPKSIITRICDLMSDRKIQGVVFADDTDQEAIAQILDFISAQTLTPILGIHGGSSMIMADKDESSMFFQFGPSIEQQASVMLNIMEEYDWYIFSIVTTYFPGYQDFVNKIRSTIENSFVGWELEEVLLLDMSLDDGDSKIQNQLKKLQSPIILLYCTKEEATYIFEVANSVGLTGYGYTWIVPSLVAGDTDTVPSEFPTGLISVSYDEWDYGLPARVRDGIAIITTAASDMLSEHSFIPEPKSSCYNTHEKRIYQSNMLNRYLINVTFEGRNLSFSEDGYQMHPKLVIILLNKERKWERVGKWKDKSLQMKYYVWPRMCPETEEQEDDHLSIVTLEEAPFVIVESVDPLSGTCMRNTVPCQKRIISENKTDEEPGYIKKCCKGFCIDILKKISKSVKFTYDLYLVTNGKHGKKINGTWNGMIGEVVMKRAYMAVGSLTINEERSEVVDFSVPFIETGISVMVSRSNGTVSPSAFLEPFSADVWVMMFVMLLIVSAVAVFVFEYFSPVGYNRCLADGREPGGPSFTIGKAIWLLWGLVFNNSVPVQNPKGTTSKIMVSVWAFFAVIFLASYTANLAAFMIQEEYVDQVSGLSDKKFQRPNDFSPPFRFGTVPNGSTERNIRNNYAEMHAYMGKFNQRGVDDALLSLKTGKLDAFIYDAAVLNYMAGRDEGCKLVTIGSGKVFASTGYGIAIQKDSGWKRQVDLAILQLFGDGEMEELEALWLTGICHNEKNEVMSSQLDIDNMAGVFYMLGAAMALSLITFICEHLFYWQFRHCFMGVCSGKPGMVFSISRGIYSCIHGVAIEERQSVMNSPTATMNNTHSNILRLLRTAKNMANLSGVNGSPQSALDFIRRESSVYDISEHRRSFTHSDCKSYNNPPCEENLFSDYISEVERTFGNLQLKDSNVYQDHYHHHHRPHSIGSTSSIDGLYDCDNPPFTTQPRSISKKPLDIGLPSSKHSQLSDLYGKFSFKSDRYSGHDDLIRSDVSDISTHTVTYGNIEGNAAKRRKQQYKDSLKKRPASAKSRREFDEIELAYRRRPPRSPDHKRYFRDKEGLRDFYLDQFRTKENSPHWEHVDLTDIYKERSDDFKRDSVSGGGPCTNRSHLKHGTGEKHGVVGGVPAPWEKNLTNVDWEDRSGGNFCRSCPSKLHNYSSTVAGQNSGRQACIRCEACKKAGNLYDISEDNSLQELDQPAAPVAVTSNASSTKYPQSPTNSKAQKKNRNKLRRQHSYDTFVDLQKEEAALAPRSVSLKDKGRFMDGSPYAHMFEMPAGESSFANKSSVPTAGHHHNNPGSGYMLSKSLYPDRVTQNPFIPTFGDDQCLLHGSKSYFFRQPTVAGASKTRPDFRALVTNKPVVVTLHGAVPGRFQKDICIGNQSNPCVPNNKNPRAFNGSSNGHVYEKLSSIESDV
Method: as §1, §2

[4] = molecular target: T4, recombinant rat GluN1/GluN2B (Rattus norvegicus, UniProt P35439+Q00960); experiment: as above
T4 construct: expressed in transfected cells; host or cells: Xenopus laevis oocytes (Ecocyte) injected with in vitro transcribed cRNA
Method: as §1, §2

[5] = molecular target: T5, recombinant rat GluN1/GluN2C (Rattus norvegicus, UniProt P35439+Q00961); experiment: Two-electrode voltage-clamp (TEVC) recordings in Xenopus laevis oocytes, GluN1/GluN2C; conditions: maximum potentiation, response without modulator = 100%; read-out: GluN2C EC50 (μM)/Max %: Max %
T5 construct: expressed in transfected cells; host or cells: Xenopus laevis oocytes (Ecocyte) injected with in vitro transcribed cRNA
T5 sequence (Q00961 20-1237, other chains not shown): as the sequence (Q00961 20-1237, other chains not shown) above
Method: as §1, §2

[6] = untitled tables after drawing 25 and drawing 36, read-out: EC50 (μM) GluN2C
[7] = maximum potentiation, response without modulator = 100%, read-out: GluN2B EC50 (μM)/Max %: Max %

Structure (SMILES): COc1ccc(OCC2c3cc(OC)c(OC)cc3CCN2C(=S)c2cccc(Cl)c2)cc1 (racemic) [1180-161]
- EC50 & Max Effect: 2C (μM) [1]: Inactive
- EC50 & Max Effect: 2D (μM) [2]: Inactive

Structure (SMILES): COc1ccc(OCC2c3ccc(OC)cc3CCN2C(=O)C=CC(F)(F)F)cc1 (centres unmarked) [1180-253]
- GluN2B response % at 30 µM [3]: 101% at 30
- EC50 [1, 6]: 7 µM
- EC50 [2]: 9 µM

Structure (SMILES): COc1ccc(OCC2c3cc(OC(=O)c4cccc(Cl)c4)c(OC)cc3CCN2C(=O)C=CC(F)(F)F)cc1 (centres unmarked) [1180-330]
- GluN2B response % at 30 µM [3]: 95 at 30%
- GluN2C response % at 30 µM [1]: 102 at 30%
- GluN2D response % at 30 µM [2]: 96 at 30%

Structure (SMILES): CCOCC(=O)N1CCc2cc(OC)ccc2C1COc1ccc(OC)cc1 (centres unmarked) [1180-240]
- GluN2B response % at 30 µM [3]: 100% at 30
- GluN2C response % at 30 µM [1]: 115% at 30
- GluN2D response % at 30 µM [2]: 114% at 30

Structure (SMILES): COc1ccc(OCC2c3ccc(OC)cc3CCN2C(=O)c2cnc(Cl)s2)cc1 (centres unmarked) [1180-241]
- GluN2B response % at 30 µM [3]: 88% at 30
- GluN2C response % at 30 µM [1]: 114% at 30
- GluN2D response % at 30 µM [2]: 131% at 30

Structure (SMILES): COc1ccc(OCC2c3ccc(OC)cc3CCN2C(=O)C=CCl)cc1 (centres unmarked) [1180-251]
- GluN2B response % at 30 µM [3]: 96% at 30
- GluN2C response % at 30 µM [1]: 99% at 30
- GluN2D response % at 30 µM [2]: 88% at 30

Structure (SMILES): COc1ccc(OC[C@H]2c3cc(OC)c(OC)cc3CCN2C(=O)c2cccc(Cl)c2)cc1 [R-1390]
- EC50 & Max Effect: 2C (μM) [1]: Inactive
- EC50 & Max Effect: 2D (μM) [2]: Inactive

Structure (SMILES): COc1ccc(OCC2c3cc(OC)c(OC)cc3CCN2C(=O)c2cccc(Cl)c2)cc1 (centres unmarked) [1390 (CIQ), reference compound]
- EC50 & Max Effect: 2C Max (%) [1]: 215%
- EC50 ([1]; read-out: EC50 & Max Effect: 2C): 2.9 µM
- EC50 & Max Effect: 2D Max (%) ([2]; Tables 11-13): 205%

Structure (SMILES): CCOc1ccc(OC[C@H]2c3ccc(OC(C)C)cc3CCN2C(=O)c2ccc(Cl)c(Cl)c2)cc1 [(R)-(+)-1180-103]
- I30 μM/Icontrol (mean ± SEM, %) GluN2B [3]: 83%
- I30 μM/Icontrol (mean ± SEM, %) GluN2C [1]: 92%
- I30 μM/Icontrol (mean ± SEM, %) GluN2D [2]: 93%

Continued, values first:

- I30 μM/Icontrol (mean ± SEM, %) GluN2B [3]: 75%
- I30 μM/Icontrol (mean ± SEM, %) GluN2C [1]: 73%
- I30 μM/Icontrol (mean ± SEM, %) GluN2D [2]: 75%
Structure (SMILES): CCOc1ccc(OC[C@H]2c3ccc(OC(C)C)cc3CCN2C(=O)c2cccc(C(F)(F)F)c2)cc1 [(R)-(+)-1180-92]

- I30 μM/Icontrol (mean ± SEM, %) GluN2B [3]: 95%
- I30 μM/Icontrol (mean ± SEM, %) GluN2C [1]: 87%
- I30 μM/Icontrol (mean ± SEM, %) GluN2D [2]: 87%
Structure (SMILES): CCOc1ccc(OC[C@@H]2c3ccc(OC(C)C)cc3CCN2C(=S)c2cccc(C(F)(F)F)c2)cc1 [(S)-(−)-1180-168]

- Emax [4, 7]: 141%
- Emax [5]: 125%
Structure (SMILES): CCOc1ccc(OCC2c3ccc(OC(C)C)cc3CCN2C(=O)c2cccc(Cl)c2)cc1 (centres unmarked) [1180-83]

- EC50 ([4]; fitted when potentiation at 30 μM exceeded 120%, Tables 3, 5-7, read-out: EC50 (max.) (μM %) GluN2B: fitted EC50): 2.8 µM
- Emax [4, 7]: 152%
- Emax ([4]; percentage of the initial glutamate (100 μM) and glycine (30 μM) current, read-out: EC50 (max.) (μM %) GluN2B: fitted maximum response): 152%
- I30 μM/Icontrol (mean ± SEM, %) GluN2B [3]: 151%
- I30 μM/Icontrol (mean ± SEM, %) GluN2C [1]: 103%
Structure (SMILES): CCOc1ccc(OCC2c3ccc(OC(C)C)cc3CCN2C(=O)c2cccc(F)c2)cc1 (centres unmarked) [1180-87]

- GluN2B response % at 30 µM [3]: 145% at 30
- GluN2C response % at 30 µM [1]: 165% at 30
- GluN2D response % at 30 µM [2]: 146% at 30
Structure (SMILES): CCOc1ccc(OCC2c3ccc(OC(C)C)cc3CCN2C(=O)C=C(C)C(F)(F)F)cc1 (centres unmarked) [1180-263]

- GluN2B response % at 30 µM [3]: 99% at 30
- EC50 [1, 6]: 15 µM
- EC50 [2]: 23 µM
Structure (SMILES): COc1ccc(OCC2c3ccc(OC)cc3CCN2C(=O)C=C(C)C(F)(F)F)cc1 (centres unmarked) [1180-255]

Source: patent US10647679B2, “N-methyl-D-aspartate receptor (NMDAR) potentiators, pharmaceutical compositions, and uses related thereto” (Emory University, priority 2015, dated 2020)
